The subject of test [1] is L6-myotubes. The test can be described thus: Glucose uptake in differentiated L6-myotubes (3H-2-deoxyglucose), compared to isoproterenol. The format is cell-based. The note with it: agonist 1×10^−5 M, 50 nM 3H-2-deoxyglucose; for Emax at 10 µM: read-out: Biological example 1: glucose uptake, activity compared to that of isoproterenol. The procedure, abridged: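 Serum-starved differentiated L6 myotubes stimulated with agonist at 1×10^−5 M for 1 h 40 min, re-dosed in glucose-free medium for 20 min, then given 50 nM ^3H-2-deoxyglucose for 10 min. Uptake read by β-counting of NaOH lysates; activity expressed relative to isoproterenol.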

For test [2], the system named is L6-myotubes. As to the kind of experiment: Measurement of intracellular cAMP levels in differentiated L6 cells (alpha screen cAMP kit), compared to isoproterenol. The format is cell-based. The conditions noted are these: Rattus norvegicus, L6, 0.25 h, agonist 1×10^−5 M, 15 min, read-out: Biological example 2: intracellular cAMP levels, activity compared to that of isoproterenol. An outline of the steps:
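L6 myoblasts were differentiated into myotubes over 7 days in 2% FBS, then serum-starved overnight. Agonist at 1×10^−5 M final was applied for 15 min in HBSS with 1% BSA, 5 mM HEPES and 1 mM IBMX, pH 7.4. After ethanol extraction and lysis, cAMP was quantified by AlphaScreen, with activity expressed relative to isoproterenol.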
For orientation: Cyclic AMP is a second messenger, typically raised through Gs and lowered through Gi signalling.

Structures can show the parent of a compound that is named as a salt. A value given as a limit tells only on which side of the number the result lay.

For `CC(C)(C[C@H]1CC[C@H](NS(=O)(=O)C2CC2)CC1)NC[C@H](O)c1cccc(F)c1` [Example 161, N-((1R,4r)-4-(2-(((R)-2-(3-Fluorophenyl)-2-hydroxyethyl)amino)-2-methypropyl)cyclohexyl)cyclopropanesulfonamide hydrochloride], in the test on L6-myotubes [1], the “Biological example 1: glucose uptake, activity compared to that of isoproterenol” value is “+ +”. Further, the Emax at 10 µM with L6-myotubes [2] was less than 25%.
For `CC(C)(C[C@H]1CC[C@@H](NS(C)(=O)=O)CC1)NC[C@H](O)c1cccc(F)c1` [Example 170, N-((1S,4s)-4-(2-(((R)-2-(3-Fluorophenyl)-2-hydroxyethyl)amino)-2-methylpropyl)cyclohexyl)methanesulfonamide hydrochloride], in that order: “+ + +” and less than 25%.
As for `CO[C@H]1CC[C@@H](C(C)(C)NC[C@H](O)c2cccc(F)c2)CC1` [Example 5, (R)-1-(3-Fluorophenyl)-2-((2-((1s,4S)-4-methoxycyclohexyl)propan-2-yl)-amino)ethan-1-ol], the Emax at 10 µM in the test on L6-myotubes [1] and in the test on L6-myotubes [2] was less than 25% each time.
Turning to `CC(C)(C[C@H]1CC[C@@H](NC(=O)C(C)(C)C)CC1)NC[C@H](O)c1cccc(F)c1` [Example 165, N-((1S,4s)-4-(2-(((R)-2-(3-Fluorophenyl)-2-hydroxyethyl)amino)-2-methylpropyl)cyclohexyl)pivalamide hydrochloride], in the test on L6-myotubes [1], the “Biological example 1: glucose uptake, activity compared to that of isoproterenol” value was “+ + +”. Further, in the test on L6-myotubes [2], the Emax at 10 µM was less than 25%.
For `CC(=O)N[C@H]1CC[C@@H](CC(C)(C)NC[C@H](O)c2cccc(F)c2)CC1` [Example 164, N-((1S,4s)-4-(2-(((R)-2-(3-Fluorophenyl)-2-hydroxyethyl)amino)-2-methylpropyl)cyclohexyl)acetamide], the “Biological example 1: glucose uptake, activity compared to that of isoproterenol” value with L6-myotubes [1] is listed as “+ + +”. The Emax at 10 µM in the test with L6-myotubes [2] is less than 25%.
For `CN([C@H]1CC[C@H](CC(C)(C)NC[C@H](O)c2cncc(F)c2)CC1)S(C)(=O)=O.Cl` [Example 183, N-((1R,4r)-4-(2-(((R)-2-(5-Fluoropyridin-3-yl)-2-hydroxyethyl)amino)-2-methylpropyl)cyclohexyl)-N-methylmethanesulfonamide], in that order: “+ + +” and less than 25%.
For `CN(C)S(=O)(=O)[C@H]1CC[C@H](CC(C)(C)NC[C@H](O)c2cncc(F)c2)CC1` [Example 187, (1R,4r)-4-(2-(((R)-2-(5-Fluoropyridin-3-yl)-2-hydroxyethyl)amino)-2-methylpropyl)-N,N-dimethylcyclohexane-1-sulfonamide dihydrochloride], in that order: “+ + +” and 25 to 50%.
For `CC(C)(NC[C@H](O)c1cncc(F)c1)[C@H]1CC[C@H](OCc2ccccc2)CC1` [Example 39, (R)-2-((2-((1r,4R)-4-(Benzyloxy)cyclohexyl)propan-2-yl)amino)-1-(5-fluoropyridin-3-yl)ethan-1-ol] the same measures were “+ +” and less than 25%.
For the molecule `CC(C)(CC[C@H]1CC[C@H](O)CC1)NC[C@H](O)c1cncc(F)c1` [Example 63, (1S,4r)-4-(3-(((R)-2-(5-Fluoropyridin-3-yl)-2-hydroxyethyl)amino)-3-methylbutyl)cyclohexan-1-ol], the Emax at 10 µM was 25 to 50% in the test on L6-myotubes [1] and less than 25% with L6-myotubes [2].
With `CO[C@H]1CC[C@H](CC(C)(C)NC[C@H](O)c2cncc(F)c2)CC1` [Example 16, (R)-1-(5-Fluoropyridin-3-yl)-2-((1-((1r,4R)-4-methoxycyclohexyl)-2-methyl-propan-2-yl)amino)ethan-1-ol], the “Biological example 1: glucose uptake, activity compared to that of isoproterenol” value in the test with L6-myotubes [1] is on record as “+ +”. Besides, in the test with L6-myotubes [2], the Emax at 10 µM was less than 25%.
For `COC(=O)[C@H]1CC[C@H](CCC(C)(C)NC[C@H](O)c2cccc(F)c2)CC1` [Example 115, Methyl (1R,4r)-4-(3-(((R)-2-(3-fluorophenyl)-2-hydroxyethyl)amino)-3-methylbutyl)cyclohexane-1-carboxylate], in that order: “+ + +” and less than 25%.
For `CO[C@H]1CC[C@H](CNC[C@H](O)c2cncc(F)c2)CC1` [Example 4, (R)-1-(5-Fluoropyridin-3-yl)-2-((((1r,4R)-4-methoxycyclohexyl)-methyl)amino)ethan-1-ol], in that order: “+ +” and less than 25%.
With `CC(=O)N[C@H]1CC[C@@H](CC(C)(C)NC[C@H](O)c2cccc(C#N)n2)CC1` [Example 141, N-((1R,4s)-4-(2-(((S)-2-(6-Cyanopyridin-2-yl)-2-hydroxyethyl)amino)-2-methylpropyl)cyclohexyl)acetamide], the “Biological example 1: glucose uptake, activity compared to that of isoproterenol” value with L6-myotubes [1] is recorded as “+ + +”. Further, the Emax at 10 µM with L6-myotubes [2] was less than 25%.
As for `CC(C)(C[C@H]1CC[C@@H](NS(C)(=O)=O)CC1)NC[C@H](O)c1cccc(C#N)n1` [Example 142, N-((1R,4s)-4-(2-(((S)-2-(6-Cyanopyridin-2-yl)-2-hydroxyethyl)amino)-2-methylpropyl)cyclohexyl)methanesulfonamide], the “Biological example 1: glucose uptake, activity compared to that of isoproterenol” value with L6-myotubes [1] is given as “+ + +”. The Emax at 10 µM in the test with L6-myotubes [2] is less than 25%.
Regarding `CC(=O)N[C@H]1CC[C@H](CC(C)(C)NC[C@@H](O)c2cccc(C#N)n2)CC1` [Example 135, N-((1R,4r)-4-(2-(((R)-2-(6-Cyanopyridin-2-yl)-2-hydroxyethyl)amino)-2-methylpropyl)cyclohexyl)acetamide], the “Biological example 1: glucose uptake, activity compared to that of isoproterenol” value in the test on L6-myotubes [1] is given as “+ +”. Also, the Emax at 10 µM in the test on L6-myotubes [2] is less than 25%.
For the molecule `CC(C)(NC[C@H](O)c1cccc(F)c1)[C@H]1CC[C@H](OCC(=O)O)CC1` [Example 126, 2-(((1R,4r)-4-(2-(((R)-2-(3-Fluorophenyl)-2-hydroxyethyl)amino)propan-2-yl)cyclohexyl)oxy)acetic acid], in the test on L6-myotubes [1], the “Biological example 1: glucose uptake, activity compared to that of isoproterenol” value is listed as “+ +”. The Emax at 10 µM in the test on L6-myotubes [2] is less than 25%.
For `CCCS(=O)(=O)N[C@H]1CC[C@H](CC(C)(C)NC[C@H](O)c2cccc(F)c2)CC1` [Example 159, N-((1R,4r)-4-(2-(((R)-2-(3-Fluorophenyl)-2-hydroxyethyl)amino)-2-methylpropyl)cyclohexyl)propane-1-sulfonamide hydrochloride], in that order: “+ + +” and 25 to 50%.
For `CN([C@H]1CC[C@@H](CC(C)(C)NC[C@H](O)c2cccc(F)c2)CC1)S(C)(=O)=O.Cl` [Example 181, N-((1S,4s)-4-(2-((®-2-(3-Fluorophenyl)-2-hydroxyethyl)amino)-2-methyl-propyl)cyclohexyl)-N-methylmethanesulfonamide hydrochloride], in that order: “+ +” and less than 25%.
For `CC(C)(C[C@H]1CC[C@@H](NC(=O)OC(C)(C)C)CC1)NC[C@H](O)c1cccc(F)c1` [Example 162, tert-Butyl ((1S,4s)-4-(2-(((R)-2-(3-fluorophenyl)-2-hydroxyethyl)amino)-2-methylpropyl)cyclohexyl)carbamate], in that order: “+ + +” and less than 25%.
For `CC(=O)N[C@H]1CC[C@H](CC(C)(C)NC[C@H](O)c2cccnc2C)CC1.Cl` [Example 145, N-((1R,4r)-4-(2-(((R)-2-Hydroxy-2-(2-methylpyridin-3-yl)ethyl)amino)-2-methylpropyl)cyclohexyl)acetamide dihydrochloride], the “Biological example 1: glucose uptake, activity compared to that of isoproterenol” value in the test with L6-myotubes [1] is “+ + +”. Further, the Emax at 10 µM in the test with L6-myotubes [2] is less than 25%.
For `CO[C@@H]1CCC[C@H](C(C)(C)NC[C@H](O)c2cncc(F)c2)C1` (single isomer, unassigned) [Example 121] the same measures were “+ +” and less than 25%.
Turning to `CC(C)(NC[C@H](O)c1cncc(F)c1)[C@H]1CC[C@@H](O)CC1` [Example 36, (1S,4s)-4-(2-(((R)-2-(5-Fluoropyridin-3-yl)-2-hydroxyethyl)amino)propan-2-yl)cyclohexan-1-ol], the Emax at 10 µM in the test on L6-myotubes [1] was 25 to 50%; in the test on L6-myotubes [2] it was less than 25%.
Consider `CCCS(=O)(=O)N[C@H]1CC[C@@H](CC(C)(C)NC[C@H](O)c2cncc(F)c2)CC1` [Example 198, N-((1S,4s)-4-(2-(((R)-2-(5-Fluoropyridin-3-yl)-2-hydroxyethyl)amino)-2-methylpropyl)cyclohexyl)propane-1-sulfonamide], for which the “Biological example 1: glucose uptake, activity compared to that of isoproterenol” value with L6-myotubes [1] was “+ + +”. Also, the Emax at 10 µM in the test on L6-myotubes [2] is less than 25%.
For `CC(C)(NC[C@H](O)c1cccc(F)c1)[C@H]1CC[C@H](OCc2ccccc2)CC1` [Example 37, (R)-2-((2-((1r,4R)-4-(Benzyloxy)cyclohexyl)propan-2-yl)amino)-1-(3-fluoro-phenyl)ethan-1-ol], in that order: “+ +” and less than 25%.
For `CNS(=O)(=O)[C@H]1CC[C@@H](CC(C)(C)NC[C@H](O)c2cncc(F)c2)CC1` [Example 193, (1S,4s)-4-(2-(((R)-2-(5-Fluoropyridin-3-yl)-2-hydroxyethyl)amino)-2-methylpropyl)-N-methylcyclohexane-1-sulfonamide dihydrochloride] the same measures were “+ + +” and less than 25%.
